Test: Transport of supinoxin in Caco-2 cells (bidirectional permeability)
Format: in vitro ADME
Details: human, supinoxin 1 µM
Method: The Caco-2 intestinal epithelial cell line (ATCC® HTB-37™) purchased from American Type Culture Collection (ATCC, Manassas, VA, USA) was cultured and maintained in Dulbecco’s modified Eagle medium (DMEM) containing 10% fetal bovine serum, 100 U/mL penicillin, and 0.1 mg/mL streptomycin under humidified atmosphere of air containing 5% CO2 at 37 °C. Caco-2 cells were seeded at a density of 6 × 10^4 cells/cm^2 onto polyethylene membranes of transwell plates (Corning Costar, Cambridge, MA, USA). The medium was replaced on alternate days after seeding, and cell monolayers were used for the transport assay after approximately 21 days of culture. Trans-epithelial electrical resistance (TEER) values of the Caco-2 monolayers were measured with an EVOM epithelial tissue voltmeter (World Precision Instruments, Sarasota, FL, USA), and cells with TEER greater than 300 Ω were used for the experiments. Cell monolayers were first rinsed three times with transport buffer (Hank’s balanced salt solution supplemented with 10 mM HEPES) and preincubated for 30 min at 37 °C. To measure the bidirectional transport of the compound, a transport buffer containing 1 µM supinoxin was added to the respective donor compartments (the apical and basolateral sides for absorptive and secretory transport assays, respectively). Samples (200 µL) were collected at 30, 60, 90, and 120 min, and an identical volume of fresh buffer was replenished. The samples were then subjected to LC–MS/MS analysis and concentrations of the samples were determined. After the final sampling from both compartments, we measured the TEER of the monolayers to ensure no possible adverse effects induced by the experimental procedures and then estimated the apparent permeability coefficient of supinoxin from the compound’s time-dependent accumulation (dQ/dt) in the receiver compartments using the following equation: Papp = dQ/dt × 1/(A × C0)(1) where dQ/dt is the rate of transport, A is the surface area of the filter, and C0 is the initial concentration in the donor chamber.

`COCCc1ccc(OCC(O)CNC(C)C)cc1` (centres unmarked) [metoprolol, reference compound] gave a Papp A→B at 120 min, 1 µM (Caco-2, Caco-2 cell monolayers, read-out: apical to basolateral apparent permeability coefficient) of 15.5 ± 0.8 ×10⁻⁶ cm/s and a Papp B→A at 120 min, 1 µM (Caco-2 cell monolayers, read-out: basolateral to apical apparent permeability coefficient) of 15.7 ± 0.8 ×10⁻⁶ cm/s.
